From ChEMBL document CHEMBL5584293, “Discovery and evaluation of novel spiroheterocyclic protective agents via a SIRT1 upregulation mechanism in cisplatin-induced premature ovarian failure” (Bioorg Med Chem, 2024) come the findings set out here.

Activity calls are given as the source filed them. No cut-off for these calls is given here.

In data set [1] the test system is KGN. As to the kind of experiment: Protective effect against cisplatin-induced injury in human KGN cells assessed as cell survival at 5 uM incubated for 48 hrs by MTT assay. Format: functional, cell-based.
Data set [2] has as its system KGN. Briefly: Protective effect against cisplatin-induced injury in human KGN cells assessed as cell survival at 25 to 50 uM incubated for 48 hrs by MTT assay. Format: functional, cell-based. Particulars: dose 25-50 µM.
The subject of data set [3] is KGN. Briefly: Protective effect against cisplatin-induced injury in human KGN cells assessed as cell survival rate at 5 uM incubated for 48 hrs by MTT assay (Rvb ~ 60 %). Format: functional. Particulars: read-out: Survival.
Data set [4] relates to KGN. As to the kind of experiment: Protective effect against cisplatin-induced injury in human KGN cells assessed as recovery of cellular suspension at 1 to 10 uM by inverted microscopy. Type of data set: functional, cell-based. As to conditions: dose 1-10 µM.
For data set [5], the system named is Rattus norvegicus. Briefly: Protective effect against cisplatin-induced damage in Wistar rat assessed as increase in growing follicle numbers in ovaries at 50 mg/kg, IG qd for 14 days by H and E staining based analysis. Particulars: time 14.0 day. Type of data set: functional, organism-based.
Data set [6] deals with KGN. Briefly: Protective effect against cisplatin-induced injury in human KGN cells assessed as recovery of cell numbers at 1 to 10 uM by inverted microscopy. Format: functional, cell-based. As to conditions: dose 1-10 µM.
In data set [7] the test system is Rattus norvegicus. Briefly: Protective effect against cisplatin-induced damage in Wistar rat assessed as increase in primordial follicle numbers in ovaries at 50 mg/kg, IG qd for 14 days by H and E staining based analysis. Type of data set: functional, organism-based. As to conditions: time 14.0 day.
Data set [8] deals with Rattus norvegicus. As to the kind of experiment: Protective effect against cisplatin-induced damage in Wistar rat assessed as decrease in uterine wall thinning at 50 mg/kg, IG qd for 14 days by H and E staining based analysis. Particulars: time 14.0 day. Format: functional, organism-based.
For data set [9], the system named is Rattus norvegicus. Briefly: Protective effect against cisplatin-induced damage in Wistar rat assessed as increase in serum E2 level at 50 mg/kg, IG qd for 14 days by ELISA. Type of data set: functional, organism-based. As to conditions: time 14.0 day.
In data set [10] the test system is KGN. Briefly: Inhibition of cisplatin-induced apoptosis in human KGN cells at 1 uM incubated for 36 hrs by Annexin V-FITC/PI staining based analysis (reference value: 53.9 %). Type of data set: functional.
In data set [11] the test system is KGN. Briefly: Protective effect against cisplatin-induced injury in human KGN cells assessed as recovery of cellular disruption at 1 to 10 uM by inverted microscopy. Format: functional, cell-based. Particulars: dose 1-10 µM.
Data set [12] concerns Rattus norvegicus. As to the kind of experiment: Protective effect against cisplatin-induced damage in Wistar rat assessed as increase in ovarian weight at 50 mg/kg, IG qd for 14 days. Type of data set: functional, organism-based. Particulars: time 14.0 day.
The test system of data set [13] is KGN. As to the kind of experiment: Inhibition of cisplatin-induced apoptosis in human KGN cells at 5 uM incubated for 36 hrs by Annexin V-FITC/PI staining based analysis (reference value: 53.9 %). Format: functional.
The subject of data set [14] is KGN. Briefly: Inhibition of cisplatin-induced apoptosis in human KGN cells at 10 uM incubated for 36 hrs by Annexin V-FITC/PI staining based analysis (reference value: 53.9 %). Type of data set: functional.
Data set [15] has as its system Rattus norvegicus. As to the kind of experiment: Protective effect against cisplatin-induced damage in Wistar rat assessed as increase in uterine weight at 50 mg/kg, IG qd for 14 days. Format: functional, organism-based. As to conditions: time 14.0 day.
In data set [16] the test system is KGN. Briefly: Protective effect against cisplatin-induced injury in human KGN cells assessed as increase in p-AKT level incubated for 36 hrs by Western blot analysis. Type of data set: functional, cell-based. Particulars: dose <= 10.0 µM.
The nature of data set [17]: Toxicity in Wistar rat model of cisplatin-induced damage assessed as body weight loss at 50 mg/kg, IG qd for 7 to 14 days. Format: organism-based. As to conditions: in vivo, po, time 7-14 day.
For data set [18], the system named is KGN. As to the kind of experiment: Protective effect against cisplatin-induced injury in human KGN cells harboring siSIRT1 at 2.5 uM incubated for 36 hrs by Western blot analysis. Format: functional, cell-based.
Data set [19] relates to Rattus norvegicus. Briefly: Protective effect against cisplatin-induced damage in Wistar rat assessed as increase in organ indices at 50 mg/kg, IG qd for 14 days. Type of data set: functional, organism-based. Particulars: time 14.0 day.
For data set [20], the system named is KGN. As to the kind of experiment: Protective effect against cisplatin-induced injury in human KGN cells assessed as recovery of cell growth at 1 to 10 uM by inverted microscopy. Format: functional, cell-based. Particulars: dose 1-10 µM.
The test system of data set [21] is KGN. Briefly: Protective effect against cisplatin-induced injury in human KGN cells assessed as increase in SIRT1 level incubated for 36 hrs by Western blot analysis. Particulars: dose <= 10.0 µM. Format: functional, cell-based.
Data set [22] relates to Rattus norvegicus. Briefly: Protective effect against cisplatin-induced damage in Wistar rat assessed as increase in sinus follicle numbers in ovaries at 50 mg/kg, IG qd for 14 days by H and E staining based analysis. Type of data set: functional, organism-based. Particulars: time 14.0 day.
Data set [23] relates to Rattus norvegicus. As to the kind of experiment: Protective effect against cisplatin-induced damage in Wistar rat assessed as improvement in ovarian structure at 50 mg/kg, IG qd for 14 days by H and E staining based analysis. Particulars: time 14.0 day. Format: functional, organism-based.
Data set [24] concerns KGN. As to the kind of experiment: Inhibition of cisplatin-induced apoptosis in human KGN cells assessed as increase in Bcl-2 expression at 1 to 10 uM by immunoblot analysis. Format: functional, cell-based. As to conditions: dose 1-10 µM.
The subject of data set [25] is KGN. As to the kind of experiment: Protective effect against cisplatin-induced injury in human KGN cells assessed as increase in serum E2 level at 1 to 10 uM by ELISA. Format: functional, cell-based. As to conditions: dose 1-10 µM.
In data set [26] the test system is KGN. Briefly: Inhibition of cisplatin-induced apoptosis in human KGN cells assessed as decrease in Bax expression at 1 to 10 uM by immunoblot analysis. Format: functional, cell-based. Particulars: dose 1-10 µM.
For data set [27], the system named is KGN. As to the kind of experiment: Protective effect against cisplatin-induced injury in human KGN cells assessed as increase in cell survival incubated for 48 hrs by MTT assay. Format: functional, cell-based. Particulars: dose 1.25-10 µM.
The test system of data set [28] is Rattus norvegicus. As to the kind of experiment: Protective effect against cisplatin-induced damage in Wistar rat assessed as decrease in atretic follicle numbers in ovaries at 50 mg/kg, IG qd for 14 days by H and E staining based analysis. Format: functional, organism-based. Particulars: time 14.0 day.
Data set [29] relates to KGN. Briefly: Protective effect against cisplatin-induced injury in human KGN cells assessed as cell survival rate at 5 uM incubated for 48 hrs by MTT assay (reference value: 65 %). Type of data set: functional. As to conditions: read-out: Survival.
Data set [30] has as its system Rattus norvegicus. Briefly: Protective effect against cisplatin-induced damage in Wistar rat assessed as reduction in vascular congestion in ovaries at 50 mg/kg, IG qd for 14 days by H and E staining based analysis. Format: functional, organism-based. Particulars: time 14.0 day.
Data set [31] has as its system KGN. Briefly: Cytotoxicity against human KGN cells at 1.25 to 10 uM incubated for 48 hrs by MTT assay. Format: toxicity, cell-based. Particulars: dose 1.25-10 µM.
A short description of data set [32]: Cytotoxicity against rat NRK cells assessed as cell survival rate at 50 uM incubated for 48 hrs by MTT assay relative to control. Format: toxicity, cell-based. Particulars: read-out: Survival.
Data set [33] can be described thus: Cytotoxicity against human PDL cells assessed as cell survival rate at 50 uM incubated for 48 hrs by MTT assay relative to control. Type of data set: toxicity, cell-based. Particulars: read-out: Survival.
The nature of data set [34]: Cytotoxicity against human MIHA cells assessed as cell survival rate at 50 uM incubated for 48 hrs by MTT assay relative to control. Format: toxicity, cell-based. As to conditions: read-out: Survival.

Regarding `CC1N[C@@]2(C(=O)c3cccc4cccc2c34)[C@@]2(CCC/C(=C\c3ccccc3F)C2=O)[C@H]1c1ccccc1F` (stereo partly specified), the result with KGN [1] and with KGN [2] was Active.
In the case of `CC1N[C@@]2(C(=O)c3cccc4cccc2c34)[C@@]2(CCC/C(=C\c3ccccc3)C2=O)[C@H]1c1ccccc1` (stereo partly specified), in the data set on KGN [3], the viability at 5 µM worked out at 75.3%.
Consider `CC1N[C@@]2(C(=O)c3cccc4cccc2c34)[C@@]2(CCC/C(=C\c3ccc(F)cc3)C2=O)[C@H]1c1ccc(F)cc1` (stereo partly specified), for which the result with KGN [1] and with KGN [2] was Active.
As to `COc1ccc(/C=C2\CCC[C@@]3(C2=O)[C@@H](c2ccc(OC)cc2)C(C)N[C@@]32C(=O)c3cccc4cccc2c34)cc1` (stereo partly specified), in the data set with KGN [1], the result was inactive. Moreover, the outcome with KGN [2] was Active.
`COc1ccc(/C=C2\CCC[C@@]3(C2=O)[C@@H](c2ccc(OC)c(OC)c2)C(C)N[C@@]32C(=O)c3cccc4cccc2c34)cc1OC` (stereo partly specified): the outcome with KGN [4], with Rattus norvegicus [5], in the data set with KGN [6], with Rattus norvegicus [7], with Rattus norvegicus [8] and in the data set with Rattus norvegicus [9] was Active. Also, the outcome with KGN [11], in the data set with Rattus norvegicus [12], in the data set with Rattus norvegicus [15], in the data set on Rattus norvegicus [19], with KGN [20] and with KGN [2] was Active. Also, the outcome with Rattus norvegicus [22], in the data set with Rattus norvegicus [23], with KGN [25], in the data set on Rattus norvegicus [28] and with Rattus norvegicus [30] was Active. The compound also returned an inhibition at 1 µM in the data set on KGN [10] of 8.6%. In the data set with KGN [13], this compound yielded an inhibition at 5 µM of 21.1%. In addition, the inhibition at 10 µM with KGN [14] was found to be 27.8%. Moreover, the Activity entry in the data set on KGN [16] was “Dose-Dependent Effect”; in data set [17] it was “Non-Toxic”; with KGN [21] it was “Dose-Dependent Effect”; in the data set with KGN [27], “Dose-Dependent Effect”; with KGN [31], “Non-Toxic”. Moreover, in the data set on KGN [18], the result was inactive. For the same compound, the inhibition result with KGN [24] and in the data set on KGN [26] was “Active” in each case. Further, the viability at 5 µM with KGN [29] was 94%.
With `COc1cc(/C=C2\CCC[C@@]3(C2=O)[C@@H](c2cc(OC)cc(OC)c2)C(C)N[C@@]32C(=O)c3cccc4cccc2c34)cc(OC)c1` (stereo partly specified), in the data set on KGN [1], the outcome was inactive. In the data set on KGN [2], the result was Active.
Take `CN1C[C@H](c2ccccc2)[C@]2(CCC/C(=C\c3ccccc3)C2=O)[C@]12C(=O)c1cccc3cccc2c13`: the values for the viability at 48 h, 50 µM in data set [32], in data set [33] and in data set [34] were 94%, 97.5% and 89.5%, respectively.
